# Assay results taken from article PMC4515243, “Phase 1 pharmacokinetic study of the oral pan-AKT inhibitor MK-2206 in Japanese patients with advanced solid tumors” (Cancer Chemotherapy and Pharmacology, 2015).
# Tested on: Japanese patients with advanced solid tumors
# Assay: phase 1 safety and tolerability (DLT, adverse events) in Japanese patients;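 further: toxicities graded by NCI CTCAE version 3.0, treatment given until disease progression or unacceptable toxicity, three to nine patients enrolled per dose level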
# From the text: Treatment was continued until disease progression or the occurrence of an unacceptable toxicity.
# A minimum of three and up to nine patients were enrolled at each dose level based on the toxicity probability intervals [9].
# Adverse events were graded using the National Cancer Institute Common Terminology Criteria for Adverse Events, version 3.0.
smiles,measurement,setting,value
NC1(c2ccc(-c3nc4ccn5c(=O)[nH]nc5c4cc3-c3ccccc3)cc2)CCC1 [MK-2206],"Eosinophilia, drug-related adverse event, patients","135 mg QW (n = 3), Grades 3–5",0
same,"Erythema multiforme, drug-related adverse event, patients","135 mg QW (n = 3), Grades 3–5",0
same,"Fatigue, drug-related adverse event, patients","135 mg QW (n = 3), Grades 3–5",0
same,"HbA1C increased, drug-related adverse event, patients","135 mg QW (n = 3), Grades 3–5",0
same,"Hyperglycemia, drug-related adverse event, patients","135 mg QW (n = 3), Grades 3–5",0
same,"Hypernatremia, drug-related adverse event, patients","135 mg QW (n = 3), Grades 3–5",0
same,"Hypoalbuminemia, drug-related adverse event, patients","135 mg QW (n = 3), Grades 3–5",0
same,"Hypokalemia, drug-related adverse event, patients","135 mg QW (n = 3), Grades 3–5",0
same,"Insulin c-peptide increased, drug-related adverse event, patients","135 mg QW (n = 3), Grades 3–5",0
same,"Leukopenia, drug-related adverse event, patients","135 mg QW (n = 3), Grades 3–5",0
same,"Localized edema, drug-related adverse event, patients","135 mg QW (n = 3), Grades 3–5",0
same,"Lymphopenia, drug-related adverse event, patients","135 mg QW (n = 3), Grades 3–5",0
same,"Nausea, drug-related adverse event, patients","135 mg QW (n = 3), Grades 3–5",0
same,"Neutropenia, drug-related adverse event, patients","135 mg QW (n = 3), Grades 3–5",0
same,"Palmar-plantar erythrodysaesthesia syndrome, drug-related adverse event, patients","135 mg QW (n = 3), Grades 3–5",0
same,"Pruritus, drug-related adverse event, patients","135 mg QW (n = 3), Grades 3–5",0
same,"Pyrexia, drug-related adverse event, patients","135 mg QW (n = 3), Grades 3–5",0
same,"Rash, drug-related adverse event, patients","135 mg QW (n = 3), Grades 3–5",0
same,"Stomatitis, drug-related adverse event, patients","135 mg QW (n = 3), Grades 3–5",0
same,"Vomiting, drug-related adverse event, patients","135 mg QW (n = 3), Grades 3–5",0
same,patients who discontinued treatment because of grade 2 rash,200 mg QW,One patient
same,patients with DLTs during Cycle 1,200 mg QW,Three of the nine
same,"ALT increased, drug-related adverse event, patients","200 mg QW (n = 9), All grades",3
same,"Blood creatinine increased, drug-related adverse event, patients","200 mg QW (n = 9), All grades",6
same,"Decreased appetite, drug-related adverse event, patients","200 mg QW (n = 9), All grades",4
same,"Diarrhea, drug-related adverse event, patients","200 mg QW (n = 9), All grades",3
same,"Dry skin, drug-related adverse event, patients","200 mg QW (n = 9), All grades",2
same,"Eosinophil count increased, drug-related adverse event, patients","200 mg QW (n = 9), All grades",5
same,"Eosinophilia, drug-related adverse event, patients","200 mg QW (n = 9), All grades",4
same,"Erythema multiforme, drug-related adverse event, patients","200 mg QW (n = 9), All grades",4
same,"Fatigue, drug-related adverse event, patients","200 mg QW (n = 9), All grades",4
same,"HbA1C increased, drug-related adverse event, patients","200 mg QW (n = 9), All grades",4
same,"Hyperglycemia, drug-related adverse event, patients","200 mg QW (n = 9), All grades",6
same,"Hypernatremia, drug-related adverse event, patients","200 mg QW (n = 9), All grades",4
same,"Hypoalbuminemia, drug-related adverse event, patients","200 mg QW (n = 9), All grades",2
same,"Hypokalemia, drug-related adverse event, patients","200 mg QW (n = 9), All grades",2
same,"Insulin c-peptide increased, drug-related adverse event, patients","200 mg QW (n = 9), All grades",5
same,"Leukopenia, drug-related adverse event, patients","200 mg QW (n = 9), All grades",8
same,"Localized edema, drug-related adverse event, patients","200 mg QW (n = 9), All grades",4
same,"Lymphopenia, drug-related adverse event, patients","200 mg QW (n = 9), All grades",2
same,"Nausea, drug-related adverse event, patients","200 mg QW (n = 9), All grades",3
same,"Neutropenia, drug-related adverse event, patients","200 mg QW (n = 9), All grades",4
same,"Palmar-plantar erythrodysaesthesia syndrome, drug-related adverse event, patients","200 mg QW (n = 9), All grades",2
same,"Pruritus, drug-related adverse event, patients","200 mg QW (n = 9), All grades",5
same,"Pyrexia, drug-related adverse event, patients","200 mg QW (n = 9), All grades",5
same,"Rash, drug-related adverse event, patients","200 mg QW (n = 9), All grades",6
same,"Stomatitis, drug-related adverse event, patients","200 mg QW (n = 9), All grades",6
same,"Vomiting, drug-related adverse event, patients","200 mg QW (n = 9), All grades",3
same,"ALT increased, drug-related adverse event, patients","200 mg QW (n = 9), Grades 3–5",1
same,"Blood creatinine increased, drug-related adverse event, patients","200 mg QW (n = 9), Grades 3–5",0
same,"Decreased appetite, drug-related adverse event, patients","200 mg QW (n = 9), Grades 3–5",1
same,"Diarrhea, drug-related adverse event, patients","200 mg QW (n = 9), Grades 3–5",0
same,"Dry skin, drug-related adverse event, patients","200 mg QW (n = 9), Grades 3–5",0
same,"Eosinophil count increased, drug-related adverse event, patients","200 mg QW (n = 9), Grades 3–5",0
same,"Eosinophilia, drug-related adverse event, patients","200 mg QW (n = 9), Grades 3–5",0
same,"Erythema multiforme, drug-related adverse event, patients","200 mg QW (n = 9), Grades 3–5",2
same,"Fatigue, drug-related adverse event, patients","200 mg QW (n = 9), Grades 3–5",0
same,"HbA1C increased, drug-related adverse event, patients","200 mg QW (n = 9), Grades 3–5",0
same,"Hyperglycemia, drug-related adverse event, patients","200 mg QW (n = 9), Grades 3–5",2
same,"Hypernatremia, drug-related adverse event, patients","200 mg QW (n = 9), Grades 3–5",1
same,"Hypoalbuminemia, drug-related adverse event, patients","200 mg QW (n = 9), Grades 3–5",0
same,"Hypokalemia, drug-related adverse event, patients","200 mg QW (n = 9), Grades 3–5",0
same,"Insulin c-peptide increased, drug-related adverse event, patients","200 mg QW (n = 9), Grades 3–5",0
same,"Leukopenia, drug-related adverse event, patients","200 mg QW (n = 9), Grades 3–5",1
same,"Localized edema, drug-related adverse event, patients","200 mg QW (n = 9), Grades 3–5",0
same,"Lymphopenia, drug-related adverse event, patients","200 mg QW (n = 9), Grades 3–5",2
same,"Nausea, drug-related adverse event, patients","200 mg QW (n = 9), Grades 3–5",1
same,"Neutropenia, drug-related adverse event, patients","200 mg QW (n = 9), Grades 3–5",0
same,"Palmar-plantar erythrodysaesthesia syndrome, drug-related adverse event, patients","200 mg QW (n = 9), Grades 3–5",0
same,"Pruritus, drug-related adverse event, patients","200 mg QW (n = 9), Grades 3–5",0
